These results are taken from patent publication US20090312521A1 (priority 2004, published 2009).

Broadly, the MIC is the least concentration at which growth counts as inhibited. Higher therefore signals a less susceptible organism.

Values after ≈ are worked out from the molar mass of the structure shown. “Also recorded” adds a separate entry of the source. Non-standard residues stand in square brackets, D forms with d. Residues, ends and D or L forms follow the SMILES beside them. β3hY = N[C@H](CC(=O)O)Cc1ccc(O)cc1; β3hS = N[C@@H](CO)CC(=O)O; βAla = NCCC(=O)O

Data set [1] has as its system Salmonella typhimurium Rb. To be noted: murium Rb.
A further data set relates to Yersinia pestis KIM5. The class given is cell-based. To be noted: Yersinia pestis KIM5, Gram −, BHI, 22 ° C.
The subject of another data set is Bacillus globigii. As to the kind of experiment: Additional antimicrobial test (MIC). To be noted: Gram +, 37 ° C. It counts as cell-based.
For a further data set, the system named is E. coli ATCC 11775. The class given is cell-based. To be noted: ATCC 11775, 24 h. The protocol: Lyophilized peptides were dissolved in NB to give a concentration of 400 μM and filtered using 0.22 μm filter discs (Millex GV, Durapore). An overnight culture in NB was adjusted to 5×10^6 CFU/mL and inoculated into the micro titer plate wells (10 μL) containing each 100 μL of a serial 2-fold dilution (200-0.4 μM) of the tested peptide in NB. Plates were incubated while gently shaking at 37 ° C. for 24 h. Next, 80 μL suspension of each well was transported into a flat-bottom 96-well plate (Costar). The absorbance was measured at 600 nm using a μQuant micro plate spectrophotometer (Bio-Tek Instruments). All peptides were measured in quadruplo. The peptide with sequence […] (see Otvos Jr, […]; Otvos, B. I.; Hoffmann, […].; Wade, […].; Bulet, P. Protein Sci. 2000, 9, 742) was used as negative control.

In data set [2] the test system is Methicillinresistant Staphylococcus aureus (MRSA). As to the kind of experiment: Additional antimicrobial test (MIC). It counts as cell-based. To be noted: Gram +, NB, 37 ° C.
The next data set relates to Bacillus thuringiensis. Put plainly: Additional antimicrobial test (MIC). To be noted: Gram +, BHI, 37 ° C. The class given is cell-based.
The test system of data set [3] is Yersinia pseudotuberculosis. It counts as cell-based. To be noted: Gram −, BHI, 35 ° C.
Data set [4] deals with Salmonella typhimurium Rc. To be noted: Gram −, NB, 37 ° C.
Data set [5] deals with Salmonella typhimurium Rd1. To be noted: Salmonella typhimurium Rd1, Gram −, NB, 37 ° C.
Another data set relates to Pseudomonas auruginosa. Put plainly: Additional antimicrobial test (MIC). The class given is cell-based.
The next data set deals with Salmonella typhimurium. To be noted: murium.
The test system of data set [6] is Salmonella typhimurium Re. To be noted: Gram −, NB, 37 ° C.
In a further data set the test system is Vibrio cholerae. As to the kind of experiment: Additional antimicrobial test (MIC). It counts as cell-based. To be noted: Gram −, BHI, 37 ° C.
The test system of a further data set is Bacillus anthracis. The class given is cell-based. To be noted: Gram +, BHI, 37 ° C.
Data set [7] has as its system aminopeptidase and carboxypeptidase. As to the kind of experiment: mammalian serum. To be noted: up to four hour; cited from earlier work.
The next data set is described as follows: mammalian serum. To be noted: up to four hour period; cited from earlier work.
The test system of a further data set is Gram-negative bacteria. To be noted: glycosylated form; cited from earlier work.
The conditions of data set [8]: cited from earlier work.
The conditions of data set [9]: aminopeptidase and carboxypeptidase cleavage; cited from earlier work.

On to `CC[C@H](C)[C@H](NC(=O)[C@@H]1CCCN1C(=O)[C@H](CCCNC(=N)N)NC(=O)[C@@H]1CCCN1C(=O)[C@H](Cc1c[nH]cn1)NC(=O)[C@H](CO)NC(=O)[C@@H](NC(=O)[C@@H]1CCCN1C(=O)[C@H](CCCNC(=N)N)NC(=O)[C@@H]1CCCN1C(=O)[C@@H](NC(=O)[C@H](Cc1ccc(O)cc1)NC(=O)[C@@H]1CCCN1C(=O)[C@H](CCCNC(=N)N)NC(=O)[C@@H]1CCCN1C(=O)[C@H](CCCCN)NC(=O)CN)[C@@H](C)O)[C@@H](C)O)C(=O)N[C@@H](CCCNC(=N)N)C(=O)N[C@H](C(=O)O)C(C)C` [Peptide 4, GKPRP YTPRP TSHPR PIRV] (H-GKPRPYTPRPTSHPRPIRV-OH; N-terminus assumed), for which the MIC was 12.5 µM (≈ 27.7 µg/mL) in data set [1]; “NI at ≦100 μM” against Yersinia pestis KIM5; 12.5 µM (≈ 27.7 µg/mL) with E. coli O157: H7; “NI at ≦100 μM” against Bacillus globigii; 100 µM (≈ 221 µg/mL) against Shigella sonnei; 1.6 µM (≈ 3.54 µg/mL) against E. coli ATCC 11775. The MIC result in data set [2] was “NI at ≦100 μM”; against Salmonella panama, 12.5 µM (≈ 27.7 µg/mL); against Klebsiella pneumoniae, 100 µM (≈ 221 µg/mL); in the data set with Salmonella infantis, 25 µM (≈ 55.3 µg/mL); against Bacillus thuringiensis, “NI at ≦100 μM”; in data set [3] it was “NI at ≦100 μM”. In addition, the minimal inhibitory concentration (MIC) is 100 µM (≈ 221 µg/mL) in data set [4]; 12.5 µM (≈ 27.7 µg/mL) in [5]; “NI at ≦100 μM” in the data set with Pseudomonas auruginosa; 25 µM (≈ 55.3 µg/mL) against Salmonella give; 12.5 µM (≈ 27.7 µg/mL) with Salmonella montevideo; 12.5 µM (≈ 27.7 µg/mL) against Salmonella typhimurium. Further, the MIC against Salmonella enteritidis is 12.5 µM (≈ 27.7 µg/mL); in data set [6], 3.38 µM (≈ 7.48 µg/mL); in the data set with Vibrio cholerae, “NI at ≦100 μM”; against Bacillus anthracis it was “NI at ≦100 μM”.

On to “Gly-Lys-Pro-Arg-Pro-Tyr-Ser*-Pro-Arg-Pro-Thr-Ser-His-Pro-Arg-Pro-Ile-Arg-Val”, for which the fragment found result is listed as “metabolites lacking five amino terminal residues; also recorded: metabolites lacking two carboxy terminal residues” in [7] and “metabolite lacking five amino terminal residues; also recorded: metabolite lacking two carboxy terminal residues” in the data set “mammalian serum”.

Take “Gly-Lys-Pro-Arg-Pro-Tyr-Ser*-Pro-Arg-Pro-Thr-Ser-His-Pro-Arg-Pro-Ile-Arg-Val [native, glycosylated peptide]”: in the data set on Gram-negative bacteria, the “activity against Gram-negative bacteria” value is on record as “moderately active” and the “time needed to kill bacteria in vivo” value is 24 h. In data set [8], the “antibacterial activity when injected into mice” value is reported as “no antibacterial activity”. For the same molecule, the “degradation in mammalian serum” value in data set [9] was “completely degraded within a four hour period”.

For the molecule `CC[C@H](C)[C@H](NC(=O)[C@@H]1CCCN1C(=O)[C@H](CCCNC(=N)N)NC(=O)[C@@H]1CCCN1C(=O)[C@H](Cc1cnc[nH]1)NC(=O)[C@H](CO)NC(=O)[C@@H](NC(=O)[C@@H]1CCCN1C(=O)[C@H](CCCNC(=N)N)NC(=O)[C@@H]1CCCN1C(=O)[C@H](CO)NC(=O)[C@H](Cc1ccc(O)cc1)NC(=O)[C@@H]1CCCN1C(=O)[C@H](CCCNC(=N)N)NC(=O)[C@@H]1CCCN1C(=O)[C@H](CCCCN)NC(=O)CN)[C@@H](C)O)C(=O)N[C@@H](CCCNC(=N)N)C(=O)N[C@H](C(=O)O)C(C)C` [Drosocin] (H-GKPRPYSPRPTSHPRPIRV-OH), the minimal inhibitory concentration (MIC) was 50 µM (≈ 110 µg/mL) in data set [1]; 25 µM (≈ 55 µg/mL) against E. coli O157: H7; 100 µM (≈ 220 µg/mL) against Shigella sonnei; 25 µM (≈ 55 µg/mL) in the data set on Salmonella panama; 100 µM (≈ 220 µg/mL) with Erwinia chrysanthemi; 100 µM (≈ 220 µg/mL) against Klebsiella pneumoniae. For the same molecule, the MIC against Salmonella infantis came out at 50 µM (≈ 110 µg/mL); in the data set on Salmonella give, 25 µM (≈ 55 µg/mL); in the data set with Salmonella montevideo, 50 µM (≈ 110 µg/mL); against Salmonella typhimurium, 25 µM (≈ 55 µg/mL); in the data set with Salmonella enteritidis it was 50 µM (≈ 110 µg/mL); against Enterobacter aerogenes, 100 µM (≈ 220 µg/mL). Moreover, the minimal inhibitory concentration (MIC) against Erwinia herbicola amounted to 12.5 µM (≈ 27.5 µg/mL).

The molecule `CC[C@H](C)[C@H](NC(=O)[C@@H]1CCCN1C(=O)[C@H](CCCNC(=N)N)NC(=O)[C@@H]1CCCN1C(=O)[C@H](Cc1c[nH]cn1)NC(=O)[C@H](CO)NC(=O)[C@@H](NC(=O)[C@@H]1CCCN1C(=O)[C@H](CCCNC(=N)N)NC(=O)[C@@H]1CCCN1C(=O)C[C@H](CO)NC(=O)C[C@H](Cc1ccc(O)cc1)NC(=O)[C@@H]1CCCN1C(=O)[C@H](CCCNC(=N)N)NC(=O)[C@@H]1CCCN1C(=O)[C@H](CCCCN)NC(=O)CN)[C@@H](C)O)C(=O)N[C@@H](CCCNC(=N)N)C(=O)N[C@H](C(=O)O)C(C)C` [Peptide 11, GKPRP βYβSPRP TSHPR PIRV] (H-GKPRP[β3hY][β3hS]PRPTSHPRPIRV-OH) came in with an MIC in the data set on E. coli ATCC 11775 of 12.5 µM (≈ 27.8 µg/mL).

Consider `CC[C@H](C)[C@H](NC(=O)[C@@H]1CCCN1C(=O)[C@H](CCCNC(=N)N)NC(=O)[C@@H]1CCCN1C(=O)[C@H](Cc1c[nH]cn1)NC(=O)[C@H](CO)NC(=O)[C@@H](NC(=O)[C@@H]1CCCN1C(=O)[C@H](CCCNC(=N)N)NC(=O)[C@@H]1CCCN1C(=O)[C@@H](NC(=O)[C@H](Cc1ccc(O)cc1)NC(=O)[C@@H]1CCCN1C(=O)[C@H](CCCNC(=N)N)NC(=O)[C@@H]1CCCN1C(=O)[C@H](CCCCN)NC(=O)CCN)[C@@H](C)O)[C@@H](C)O)C(=O)N[C@@H](CCCNC(=N)N)C(=O)N[C@H](C(=O)O)C(C)C` [Peptide 14, βAlaKPRP YTPRP TSHPR PIRV] (H-[βAla]KPRPYTPRPTSHPRPIRV-OH; N-terminus assumed), for which the MIC in data set [1] was 12.5 µM (≈ 27.8 µg/mL); against Yersinia pestis KIM5 it was “NI at ≦100 μM”; in the data set with E. coli O157: H7, 25 µM (≈ 55.7 µg/mL); against Bacillus globigii, “NI at ≦100 μM”; in the data set with Shigella sonnei it was 100 µM (≈ 223 µg/mL); in the data set on E. coli ATCC 11775, 3.1 µM (≈ 6.9 µg/mL). Further, the minimum inhibitory concentration (MIC) entry was “NI at ≦100 μM” in data set [2]; 25 µM (≈ 55.7 µg/mL) against Salmonella panama; 100 µM (≈ 223 µg/mL) in the data set with Klebsiella pneumoniae; 25 µM (≈ 55.7 µg/mL) in the data set on Salmonella infantis; “NI at ≦100 μM” in the data set with Bacillus thuringiensis; “NI at ≦100 μM” in data set [3]. Moreover, the MIC is 100 µM (≈ 223 µg/mL) in [4]; 12.5 µM (≈ 27.8 µg/mL) in [5]; “NI at ≦100 μM” in the data set with Pseudomonas auruginosa; 100 µM (≈ 223 µg/mL) in the data set with Salmonella give; 12.5 µM (≈ 27.8 µg/mL) in the data set with Salmonella montevideo; 50 µM (≈ 111 µg/mL) in the data set on Salmonella typhimurium. For the same molecule, the MIC in the data set with Salmonella enteritidis was 12.5 µM (≈ 27.8 µg/mL); in [6] it was 3.38 µM (≈ 7.53 µg/mL); against Vibrio cholerae it was “NI at ≦100 μM”; against Bacillus anthracis, “NI at ≦100 μM”.
